# Assay results as given in patent publication US10052320B2, “Substituted quinoxalines as FGFR kinase inhibitors” (ASTEX THERAPEUTICS LIMITED, priority 2011, dated 2018).
# What was measured:
# [1] = target: FGFR3 (h) (Homo sapiens, UniProt P22607); assay: FGFR3 (enzymatic assay), TR-FRET; type: biochemical; conditions: read-out: FGFR 3 pIC50 (converted)
# Experimental: In a final reaction volume of 30 μL, FGFR3 (h) (40 ng/ml) was incubated with 50 mM HEPES pH 7.5, 6 mM MnCl2, 1 mM DTT, 0.1 mM Na3VO4, 0.01% Triton-X-100, 500 nM Btn-Flt3 and 25 μM ATP in the presence of compound (1% DMSO final). […] Time-Resolved Fluorescence Resonance Energy Transfer (TR-FRET) signal (ex340 nm. Em 620 nm, em 655 nm) was measured afterwards and results are expressed in RFU (Relative Fluorescence Units).
# [2] = target: Ba/F3-KDR-transfected cells (Homo sapiens, UniProt P35968); assay: Ba/F3-KDR (minus IL3) cellular proliferation assay, Alamar Blue; type: cell-based; conditions: minus IL3
# Summary of the method: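 Readout is resazurin (Alamar Blue) fluorescence, ex 540/em 590 nm, after 4 h, following 24 h compound exposure of KDR-transfected Ba/F3 cells at 37° C, 5% CO2 in 10% FBS RPMI. Plus-IL3 arm adds 10 ng/ml murine IL3; otherwise same conditions.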
# [3] = target: Ba/F3-FGFR4-transfected cells (Homo sapiens, UniProt P22455); assay: Ba/F3-FGFR4 cellular proliferation assay, Alamar Blue; type: cell-based
# Experimental: Ba/F3-FGFR4 (Cellular Proliferation Assay)
# In a 384 well plate, 100 nl of compound dilution in DMSO was sprayed before adding 50 μl cell culture medium (phenol red free RPMI-1640, 10% FBS, 2 mM L-Glutamine and 50 μg/ml Gentamycin) containing 20000 cells per well of Ba/F3-FGFR4-transfected cells. Cells were put in an incubator at 37° C. and 5% CO2. After 24 hours, 10 μl of Alamar Blue solution (0.5 mM K3Fe(CN)6, 0.5 mM KaFe(CN)6, 0.15 mM Resazurin and 100 mM Phosphate Buffer) was added to the wells, incubated for 4 hours at 37° C. and 5% CO2 before RFU's (Relative Fluorescence Units) (ex. 540 nm., em. 590 nm.) were measured in a flurorescence plate reader.
# FGFR3 (h), sequence (P22607 23-806): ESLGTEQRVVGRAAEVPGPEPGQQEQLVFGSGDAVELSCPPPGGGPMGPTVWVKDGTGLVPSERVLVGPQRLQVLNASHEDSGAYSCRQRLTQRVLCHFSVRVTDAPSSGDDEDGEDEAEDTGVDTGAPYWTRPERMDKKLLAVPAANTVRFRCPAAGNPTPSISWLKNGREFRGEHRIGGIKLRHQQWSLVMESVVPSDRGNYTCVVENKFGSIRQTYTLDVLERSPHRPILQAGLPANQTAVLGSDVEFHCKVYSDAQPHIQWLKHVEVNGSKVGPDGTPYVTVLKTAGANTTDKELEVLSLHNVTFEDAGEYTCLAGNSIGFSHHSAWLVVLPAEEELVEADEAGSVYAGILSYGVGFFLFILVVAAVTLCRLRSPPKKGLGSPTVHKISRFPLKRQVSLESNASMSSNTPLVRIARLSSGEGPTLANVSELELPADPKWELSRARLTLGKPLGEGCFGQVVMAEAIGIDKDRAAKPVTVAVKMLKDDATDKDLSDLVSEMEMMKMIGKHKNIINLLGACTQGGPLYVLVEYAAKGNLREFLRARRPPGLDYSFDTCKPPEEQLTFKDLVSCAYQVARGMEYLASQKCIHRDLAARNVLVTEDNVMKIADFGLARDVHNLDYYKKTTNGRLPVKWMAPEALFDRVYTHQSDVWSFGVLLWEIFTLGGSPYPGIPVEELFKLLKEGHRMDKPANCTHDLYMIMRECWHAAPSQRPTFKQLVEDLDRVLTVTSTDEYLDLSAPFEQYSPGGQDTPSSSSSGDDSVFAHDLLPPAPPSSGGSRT
# Ba/F3-FGFR4-transfected cells, sequence (P22455 whole entry, change not shown): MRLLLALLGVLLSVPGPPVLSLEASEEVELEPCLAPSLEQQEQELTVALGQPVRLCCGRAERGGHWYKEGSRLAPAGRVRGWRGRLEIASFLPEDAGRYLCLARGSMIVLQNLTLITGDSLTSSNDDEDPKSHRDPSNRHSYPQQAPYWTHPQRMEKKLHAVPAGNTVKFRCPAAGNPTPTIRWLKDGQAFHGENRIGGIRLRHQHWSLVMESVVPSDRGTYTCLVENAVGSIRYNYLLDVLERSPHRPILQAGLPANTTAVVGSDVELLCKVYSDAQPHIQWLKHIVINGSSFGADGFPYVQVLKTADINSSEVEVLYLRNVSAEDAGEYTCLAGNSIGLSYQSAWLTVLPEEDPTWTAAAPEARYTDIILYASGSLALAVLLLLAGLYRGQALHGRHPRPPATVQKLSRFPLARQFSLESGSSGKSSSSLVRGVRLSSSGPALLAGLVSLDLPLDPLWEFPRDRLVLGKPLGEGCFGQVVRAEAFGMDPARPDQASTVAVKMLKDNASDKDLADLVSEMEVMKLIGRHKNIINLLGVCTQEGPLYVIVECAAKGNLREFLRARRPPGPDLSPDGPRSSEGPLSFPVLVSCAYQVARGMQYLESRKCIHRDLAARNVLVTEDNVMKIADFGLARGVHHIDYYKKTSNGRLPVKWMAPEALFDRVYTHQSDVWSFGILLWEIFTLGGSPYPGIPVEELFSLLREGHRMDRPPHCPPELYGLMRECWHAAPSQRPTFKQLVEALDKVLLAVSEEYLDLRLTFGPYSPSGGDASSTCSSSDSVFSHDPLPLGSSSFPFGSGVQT
# Ba/F3-KDR-transfected cells, sequence (P35968 whole entry, change not shown): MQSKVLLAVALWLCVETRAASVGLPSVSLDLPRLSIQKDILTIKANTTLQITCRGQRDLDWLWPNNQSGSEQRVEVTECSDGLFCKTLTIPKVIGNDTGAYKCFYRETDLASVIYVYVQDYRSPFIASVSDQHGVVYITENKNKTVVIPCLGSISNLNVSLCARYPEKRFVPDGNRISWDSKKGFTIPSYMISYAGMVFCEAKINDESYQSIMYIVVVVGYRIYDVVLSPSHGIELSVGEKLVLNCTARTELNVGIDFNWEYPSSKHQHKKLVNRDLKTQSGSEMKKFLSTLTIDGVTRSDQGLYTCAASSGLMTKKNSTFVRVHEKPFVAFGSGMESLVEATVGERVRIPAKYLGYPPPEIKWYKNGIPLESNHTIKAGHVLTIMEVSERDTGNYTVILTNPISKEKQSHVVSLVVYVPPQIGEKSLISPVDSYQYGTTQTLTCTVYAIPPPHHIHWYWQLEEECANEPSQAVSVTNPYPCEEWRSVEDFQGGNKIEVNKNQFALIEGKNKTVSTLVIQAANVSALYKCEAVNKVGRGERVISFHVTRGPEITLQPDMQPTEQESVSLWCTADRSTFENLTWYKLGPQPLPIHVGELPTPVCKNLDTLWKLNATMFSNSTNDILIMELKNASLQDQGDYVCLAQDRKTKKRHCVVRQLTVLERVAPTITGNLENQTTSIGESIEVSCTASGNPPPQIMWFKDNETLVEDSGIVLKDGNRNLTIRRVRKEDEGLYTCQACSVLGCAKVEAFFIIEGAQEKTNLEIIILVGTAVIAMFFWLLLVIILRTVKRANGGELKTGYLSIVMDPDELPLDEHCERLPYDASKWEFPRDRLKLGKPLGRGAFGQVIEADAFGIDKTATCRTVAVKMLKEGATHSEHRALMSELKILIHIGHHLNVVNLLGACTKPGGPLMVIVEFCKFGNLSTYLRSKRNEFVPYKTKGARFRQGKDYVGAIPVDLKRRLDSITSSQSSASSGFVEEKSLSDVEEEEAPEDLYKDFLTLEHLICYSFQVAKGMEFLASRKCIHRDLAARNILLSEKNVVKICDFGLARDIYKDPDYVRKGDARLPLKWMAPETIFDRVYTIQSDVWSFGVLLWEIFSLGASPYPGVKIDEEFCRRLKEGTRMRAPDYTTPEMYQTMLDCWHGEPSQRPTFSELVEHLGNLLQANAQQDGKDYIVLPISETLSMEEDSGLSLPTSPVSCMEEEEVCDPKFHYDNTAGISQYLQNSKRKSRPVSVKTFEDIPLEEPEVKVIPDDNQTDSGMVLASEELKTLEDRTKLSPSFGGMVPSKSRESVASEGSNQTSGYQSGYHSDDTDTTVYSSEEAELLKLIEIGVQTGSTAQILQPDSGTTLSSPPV
Compound,IC50 [1],BAF3-KDR (MIN IL3) 384 well pIC50 [2],BAF3-FGFR4 pIC50 [3]
COc1cc(OC)cc(N(CCO)c2ccc3ncc(-c4ccc(N5CCN(C)CC5)nc4)nc3c2)c1 [Compound 163],7.94 nM,5.3,<5
COc1cc(OC)cc(N(CCO)c2ccc3ncc(-c4ccc(N5CCNCC5)nc4)nc3c2)c1 [Compound 165],4.9 nM,5.36,6.6
COc1cc(OC)cc(N(CCO)c2ccc3ncc(-c4ccc(N5CCNCC5)cc4)nc3c2)c1 [Compound 166],0.832 nM,5.55,6.7
COc1cc(OC)cc(N(CCNC(C)C)c2ccc3ncc(-n4cnc(COC(C)=O)c4)nc3c2)c1 [Compound 167],11 nM,<5,6.4
COc1cc(OC)cc(N(CCNC(C)C)c2ccc3ncc(-c4ccc(N5CCOCC5)nc4)nc3c2)c1 [Compound 168],3.24 nM,5.75,6.9
COc1cc(OC)cc(N(CCN2CCOCC2)c2ccc3ncc(-c4ccc(N)nc4)nc3c2)c1 [Compound 169],6.46 nM,5.1,6.0
COc1cc(OC)cc(N(CCNC(C)C)c2ccc3ncc(-c4ccc(N5CCN(C)CC5)nc4)nc3c2)c1 [Compound 170],6.17 nM,<5,6.2
COc1cc(OC)cc(N(CCO)c2ccc3ncc(/C(C)=N/OC(C)(C)C)nc3c2)c1 [Compound 171],501 nM,<5,<5
COC(=O)C1CCCN1c1cnc2ccc(N(CCO)c3cc(OC)cc(OC)c3)cc2n1 (stereo not drawn) [Compound 172],87.1 nM,<5,5.1
COc1cc(OC)cc(N(CCO)c2ccc3ncc(C4=CCN(C(=O)OC(C)(C)C)C4)nc3c2)c1 [Compound 173],10.2 nM,<5,5.6
COc1cc(OC)cc(N(CCO)c2ccc3ncc(C4=CCN(C(=O)OC(C)(C)C)CC4)nc3c2)c1 [Compound 178],2.88 nM,<5,5.9
COc1cc(OC)cc(N(CCNC(C)C)c2ccc3ncc(C(=O)N4CCN(C)CC4)nc3c2)c1 [Compound 179],380 nM,<5,<5
COc1cc(OC)cc(N(CCNC(C)C)c2ccc3ncc(C(=O)N4CCCCC4)nc3c2)c1 [Compound 180],263 nM,<5,5.2
COc1cc(OC)cc(N(CCNC(C)C)c2ccc3ncc(C(=O)N4CCOCC4)nc3c2)c1 [Compound 181],501 nM,<5,<5
COc1cc(OC)cc(N(CCNC(C)C)c2ccc3ncc(C(=O)NCCCN4CCCCC4)nc3c2)c1 [Compound 182],126 nM,<5,5.7
COc1cc(OC)cc(N(CC#Cc2ncccc2OC)c2ccc3ncc(-c4cccnc4)nc3c2)c1 [Compound 183],162 nM,<5,~6.5
COc1cc(OC)cc(N(CCO)c2ccc3ncc(C(=O)Nc4cnn(C)c4)nc3c2)c1 [Compound 184],110 nM,<5,5.1
COc1cc(OC)cc(N(CCO)c2ccc3ncc(C4CCN(C(=O)OC(C)(C)C)CC4)nc3c2)c1 [Compound 185],110 nM,<5,<5
COc1cc(OC)cc(N(CCCO)c2ccc3ncc(-c4ccnc(C(=O)NCCOCCO)c4)nc3c2)c1 [Compound 186],16.2 nM,<5,5.57
COc1cc(OC)cc(N(CCNC(C)C)c2ccc3ncc(-c4ccnn4C4CCCCO4)nc3c2)c1 (stereo not drawn) [Compound 188],17.8 nM,5.14,6.05
COc1cc(OC)cc(N(CCNC(C)C)c2ccc3ncc(-c4ccn[nH]4)nc3c2)c1 [Compound 189],6.17 nM,5.14,6.23
